Where two headings read alike, the source gives them in different places.
Experiments:
[1] = biological target: T1, cloned human 5-HT1A receptors (Homo sapiens, UniProt P08908); assay: Inhibition of 3H-5-CT binding to human 5-HT1A receptors; conditions: cloned human 5-HT1A receptors in transfected HeLa cells (HA7), 15 minutes at 37° C., pH 7.7
T1 construct: expressed in transfected cells; host or cells: HeLa cells (HA7)
T1 sequence (P08908 1-422): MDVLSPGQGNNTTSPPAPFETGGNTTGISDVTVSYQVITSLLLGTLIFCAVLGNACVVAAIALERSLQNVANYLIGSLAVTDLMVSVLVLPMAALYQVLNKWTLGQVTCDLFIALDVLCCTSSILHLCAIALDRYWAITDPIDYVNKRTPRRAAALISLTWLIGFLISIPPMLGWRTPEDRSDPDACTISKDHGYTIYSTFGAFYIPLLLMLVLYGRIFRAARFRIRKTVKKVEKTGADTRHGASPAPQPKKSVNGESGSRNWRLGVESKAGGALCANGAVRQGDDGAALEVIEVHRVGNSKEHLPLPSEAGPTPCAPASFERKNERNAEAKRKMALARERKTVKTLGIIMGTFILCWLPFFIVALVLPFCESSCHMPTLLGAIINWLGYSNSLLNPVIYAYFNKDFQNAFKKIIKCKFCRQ
Description: The affinity of the compounds of the invention to 5-HT1A receptors was determined by measuring the inhibition of binding of a radioactive ligand at 5-HT1A receptors as described in the following test:
Inhibition of ^3H-5-CT Binding to Human 5HT1A Receptors
By this method the inhibition by drugs of the binding of the 5-HT1A agonist ^3H-5-carboxamido tryptamine (^3H-5-CT) to cloned human 5-HT1A receptors stably expressed in transfected HeLa cells (HA7) (Fargin, A. et al, J. Biol. Chem., 1989, 264, 14848) is determined in vitro. The assay was performed as a modification of the method described by Harrington, M. A. et al, J. Pharmacol. Exp. Ther., 1994, 268, 1098. Human 5-HT1A receptors (40 μg of cell homogenate) were incubated for 15 minutes at 37° C. in 50 mM Tris buffer at pH 7.7 in the presence of ^3H-5-CT. Non-specific binding was determined by including 10 μM of metergoline. The reaction was terminated by rapid filtration through Unifilter GF/B filters on a Tomtec Cell Harvester. Filters were counted in a Packard Top Counter.

[2] = biological target: T2, Serotonin reuptake (whole rat brain synaptosomes) (Rattus norvegicus, UniProt P31652); assay: Inhibition of 3H-5-HT uptake into rat brain synaptosomes; type: biochemical
T2 construct: from tissue; host or cells: whole rat brain synaptosomes
Description: Inhibition of ^3H-5-HT Uptake Into Rat Brain Synaptosomes
Using this method the ability of drugs to inhibit the accumulation of ^3H-5-HT into whole rat brain synaptosomes is determined in vitro.

T2 sequence (P31652 whole entry): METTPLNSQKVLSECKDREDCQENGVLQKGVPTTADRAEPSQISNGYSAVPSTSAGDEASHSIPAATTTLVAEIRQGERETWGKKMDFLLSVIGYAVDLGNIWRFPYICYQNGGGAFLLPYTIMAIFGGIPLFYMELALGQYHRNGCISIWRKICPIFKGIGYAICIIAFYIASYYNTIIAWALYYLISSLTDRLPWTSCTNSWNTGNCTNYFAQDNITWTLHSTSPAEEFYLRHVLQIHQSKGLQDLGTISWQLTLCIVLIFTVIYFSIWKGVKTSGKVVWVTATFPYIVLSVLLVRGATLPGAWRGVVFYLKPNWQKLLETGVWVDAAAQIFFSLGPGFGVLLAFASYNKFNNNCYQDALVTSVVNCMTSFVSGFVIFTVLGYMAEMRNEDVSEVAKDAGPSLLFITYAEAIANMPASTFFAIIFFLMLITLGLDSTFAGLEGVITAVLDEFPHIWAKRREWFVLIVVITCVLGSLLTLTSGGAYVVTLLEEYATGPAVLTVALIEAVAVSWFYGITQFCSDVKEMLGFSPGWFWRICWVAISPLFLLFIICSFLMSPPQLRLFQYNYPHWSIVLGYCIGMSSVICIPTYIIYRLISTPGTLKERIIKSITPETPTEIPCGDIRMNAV

Structure (SMILES)	IC50 [1] [nM]	IC50 [2] [nM]	melting point [°C]	IC50 ([2]; 3H-5-HT accumulation into whole rat brain synaptosomes, in vitro, read-out: Inhibition of Serotonin reuptake IC50) [nM]
OCc1cc(N2CCN(CCc3c[nH]c4ccc(Br)cc34)CC2)c2cc[nH]c2c1 [Compound 3c, 1-(2-(5-Bromo-1H-indol-3-yl)ethyl)-4-(6-hydroxymethyl-1H-indol-4-yl)piperazine]	1000	46	163 to 165	–
OCc1cc(N2CCN(CCc3c[nH]c4cc(Cl)ccc34)CC2)c2cc[nH]c2c1 [Compound 3b, 1-(2-(6-Chloro-1H-indol-3-yl)ethyl)-4-(6-hydroxymethyl-1H-indol-4-yl)piperazine]	120	33	194 to 196	–
Fc1ccc2[nH]cc(CCN3CCN(c4cccc5[nH]ccc45)CC3)c2c1 [Compound 2c, 1-(2-(5-Fluoro-1H-indol-3-yl)ethyl)-4-(1H-indol-4-yl)piperazine]	27	2.3	–	–
COC(=O)c1cc(N2CCN(CCc3coc4ccc(F)cc34)CC2)c2cc[nH]c2c1 [Compound 4h, 1-(2-(5-Fluoro-3-benzofuranyl)ethyl)-4-(6-methoxycarbonyl-1H-indol-4-yl)piperazine]	3100	–	–	71
Clc1cccc2[nH]cc(CCN3CCN(c4cccc5[nH]ccc45)CC3)c12 [Compound 2b, 1-(2-(4-Chloro-1H-indol-3-yl)ethyl)-4-(1H-indol-4-yl)piperazine]	11	6.9	–	–
